This is an account of results in US20240067662A1, “KRAS INHIBITORS” (Bristol-Myers Squibb Company, priority 2022, published 2024).

Each structure is given as a SMILES string.

The target in this test is GMPPNP-loaded KRAS G12C (Homo sapiens, UniProt P01116, G12C). The test can be described thus: KRAS G12C RAF Disruption Assay (HTRF). Format: biochemical. To be noted: recombinant GMPPNP-loaded KRAS G12C (5 nM), 20 min with compound; GST-RAF1 RBD (9 nM); HTRF signal; read-out: KRASG12C RAF Disruption Assay (IC50). In a few lines: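 The read-out is an HTRF 520/495 emission ratio, with IC50 taken from dose-response curves. Compound was first incubated for 20 min at room temperature with active-state KRAS G12C (GMPPNP, 5 nM) in Tris pH 7.5/NaCl/MgCl2/DTT/BSA. RAF1 RBD-GST (9 nM, 20 min) and SA-Tb (0.25 nM, 3 h) were added in turn.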
GMPPNP-loaded KRAS G12C, sequence (P01116 1-188 isoform P01116-2 G12C): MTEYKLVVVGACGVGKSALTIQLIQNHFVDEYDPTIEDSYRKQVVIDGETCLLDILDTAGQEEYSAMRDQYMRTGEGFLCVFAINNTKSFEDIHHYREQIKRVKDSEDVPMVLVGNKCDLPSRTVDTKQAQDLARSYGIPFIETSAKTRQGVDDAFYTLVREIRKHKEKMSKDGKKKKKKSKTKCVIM
(In general: In TR-FRET formats the signal depends on donor and acceptor labels being close together.)

The term IC50 denotes the concentration that inhibits the measured activity by half. As to `C#Cc1cccc2cccc(-c3ncc4c(N5CCN(C(=O)/C(F)=C/c6ncco6)CC5)nc(OC[C@@]56CCCN5C[C@H](F)C6)nc4c3F)c12` [Compound 124, (Z)-1-(4-(7-(8-ethynylnaphthalen-1-yl)-8-fluoro-2-(((2R, 7aS)-2-fluorotetrahydro-1H-pyrrolizin-7a(5H)-yl)methoxy)pyrido[4,3-d]pyrimidin-4-yl)piperazin-1-yl)-2-fluoro-3-(oxazol-2-yl)prop-2-en-1-one], the IC50 worked out at 540 nM.
With `N#CC[C@H]1CN(c2nc(OC[C@@]34CCCN3C[C@H](F)C4)nc3c(F)c(-c4csc5ccccc45)ncc23)CCN1C(=O)/C(F)=C/c1nccs1` [Example 34, 2-((S)-4-(7-(benzo[b]thiophen-3-yl)-8-fluoro-2-(((2R, 7aS)-2-fluorotetrahydro-1H-pyrrolizin-7a(5H)-yl)methoxy)pyrido[4,3-d]pyrimidin-4-yl)-1-((Z)-2-fluoro-3-(thiazol-2-yl)acryloyl)piperazin-2-yl)acetonitrile] the figure was 400 nM; with `C#Cc1cccc2cccc(-c3ncc4c(N5CC[C@@H]6CN(C(=O)/C(F)=C/c7ccccn7)C[C@@H]65)nc(OC[C@@]56CCCN5C[C@H](F)C6)nc4c3F)c12` [Compound 85, (Z)-1-((3aR, 6aR)-1-(7-(8-ethynylnaphthalen-1-yl)-8-fluoro-2-(((2R, 7aS)-2-fluorotetrahydro-1H-pyrrolizin-7a(5H)-yl)methoxy)pyrido[4,3-d]pyrimidin-4-yl)hexahydropyrrolo[3,4-b]pyrrol-5(1H)-yl)-2-fluoro-3-(pyridin-2-yl)prop-2-en-1-one], 110 nM; with `N#Cc1cccc2cccc(-c3ncc4c(N5CCN(C(=O)/C(F)=C/c6ccccn6)CC5)nc(OC[C@@]56CCCN5C[C@H](F)C6)nc4c3F)c12` [Example 49, 8-(8-fluoro-4-(4-((Z)-2-fluoro-3-(pyridin-2-yl)acryloyl)piperazin-1-yl)-2-(((2R, 7aS)-2-fluorotetrahydro-1H-pyrrolizin-7a(5H)-yl)methoxy)pyrido[4,3-d]pyrimidin-7yl)-1-naphthonitrile], 800 nM.
In the case of `C#Cc1cccc2cccc(-c3ncc4c(N5CCN(C(=O)/C(F)=C/c6ncccn6)CC5)nc(OC[C@@]56CCCN5C[C@H](F)C6)nc4c3F)c12` [Compound 123, (Z)-1-(4-(7-(8-ethynylnaphthalen-1-yl)-8-fluoro-2-(((2R, 7aS)-2-fluorotetrahydro-1H-pyrrolizin-7a(5H)-yl)methoxy)pyrido[4,3-d]pyrimidin-4-yl)piperazin-1-yl)-2-fluoro-3-(pyrimidin-2-yl)prop-2-en-1-one] it was 187 nM; in that of `CN1CCC[C@H]1COc1nc(N2CCN(C(=O)/C(F)=C/c3nccs3)[C@@H](CC#N)C2)c2cnc(-c3cc(O)ccc3F)c(F)c2n1` [Example 23, 2-((S)-1-((Z)-2-fluoro-3-(thiazol-2-yl)acryloyl)-4-(8-fluoro-7-(2-fluoro-5-hydroxyphenyl)-2-(((S)-1-methylpyrrolidin-2-yl)methoxy)pyrido[4,3-d]pyrimidin-4-yl)piperazin-2-yl)acetonitrile], 180 nM; in that of `C#Cc1c(F)ccc2cc(O)cc(-c3ncc4c(N5C[C@H]6CC[C@@H](C5)N6C(=O)/C(F)=C/c5ccc(C)cn5)nc(OC[C@@]56CCCN5C[C@H](F)C6)nc4c3F)c12` [Compound 6, (Z)-1-((1R, 5S)-3-(7-(8-ethynyl-7-fluoro-3-hydroxynaphthalen-1-yl)-8-fluoro-2-(((2R, 7aS)-2-fluorotetrahydro-1H-pyrrolizin-7a(5H)-yl)methoxy)pyrido[4,3-d]pyrimidin-4-yl)-3,8-diazabicyclo[3.2.1]octan-8-yl)-2-fluoro-3-(5-methylpyridin-2-yl)prop-2-en-1-one], 45 nM.
As to `N#Cc1cccc2[nH]cc(-c3ncc4c(N5CCN(C(=O)/C(F)=C/c6ccccn6)CC5)nc(OC[C@@]56CCCN5C[C@H](F)C6)nc4c3F)c12` [Compound 133, 3-(8-fluoro-4-(4-((Z)-2-fluoro-3-(pyridin-2-yl)acryloyl)piperazin-1-yl)-2-(((2R, 7aS)-2-fluorotetrahydro-1H-pyrrolizin-7a(5H)-yl)methoxy)pyrido[4,3-d]pyrimidin-7-yl)-1H-indole-4-carbonitrile], the IC50 was 890 nM.
In the case of `C#Cc1c(F)c(F)cc2cccc(-c3ncc4c(N5CCN(C(=O)/C(F)=C/c6ncccn6)CC5)nc(OC[C@@]56CCCN5C[C@H](F)C6)nc4c3F)c12` [Compound 98, (Z)-1-(4-(7-(8-ethynyl-6,7-difluoronaphthalen-1-yl)-8-fluoro-2-(((2R, 7aS)-2-fluorotetrahydro-IH-pyrrolizin-7a(5H)-yl)methoxy)pyrido[4,3-d]pyrimidin-4-yl)piperazin-1-yl)-2-fluoro-3-(pyrimidin-2-yl)prop-2-en-1-one] it was 91 nM.
With `C#Cc1cccc2cccc(-c3ncc4c(N(C)[C@@H]5CCN(C(=O)/C(F)=C/c6nccs6)C5)nc(OC[C@@]56CCCN5C[C@H](F)C6)nc4c3F)c12` [Compound 116, (Z)-1-((R)-3-((7-(8-ethynylnaphthalen-1-yl)-8-fluoro-2-(((2R, 7aS)-2-fluorotetrahydro-1H-pyrrolizin-7a(5H)-yl)methoxy)pyrido[4,3-d]pyrimidin-4-yl)(methyl)amino)pyrrolidin-1-yl)-2-fluoro-3-(thiazol-2-yl)prop-2-en-1-one] the figure was 27 nM; with `C#Cc1cccc2cccc(-c3ncc4c(N5CCN(C(=O)/C(F)=C/c6ccccn6)CC5)nc(OC[C@@]56CCCN5C[C@H](F)C6)nc4c3F)c12` [Example 29, (Z)-1-(4-(7-(8-ethynylnaphthalen-1-yl)-8-fluoro-2-(((2R, 7aS)-2-fluorotetrahydro-1H-pyrrolizin-7a(5H)-yl)methoxy)pyrido[4,3-d]pyrimidin-4-yl)piperazin-1-yl)-2-fluoro-3-(pyridin-2-yl)prop-2-en-1-one], 100 nM.
With `C#Cc1c(F)ccc2cc(O)cc(-c3ncc4c(N5C[C@H]6CC[C@@H](C5)N6C(=O)/C(F)=C/c5ncco5)nc(OC[C@@]56CCCN5C[C@H](F)C6)nc4c3F)c12` [Compound 4, (Z)-1-((1R, 5S)-3-(7-(8-ethynyl-7-fluoro-3-hydroxynaphthalen-1-yl)-8-fluoro-2-(((2R, 7aS)-2-fluorotetrahydro-1H-pyrrolizin-7a(5H)-yl)methoxy)pyrido[4,3-d]pyrimidin-4-yl)-3,8-diazabicyclo[3.2.1]octan-8-yl)-2-fluoro-3-(oxazol-2-yl)prop-2-en-1-one] the figure was 260 nM.
On to `C#Cc1c(F)ccc2cccc(-c3ncc4c(N5CCN(C(=O)/C(F)=C/c6ccccn6)C[C@@H]5C)nc(OC[C@@]56CCCN5C[C@H](F)C6)nc4c3F)c12` [Compound 89, (Z)-1-((S)-4-(7-(8-ethynyl-7-fluoronaphthalen-1-yl)-8-fluoro-2-(((2R, 7aS)-2-fluorotetrahydro-1H-pyrrolizin-7a(5H)-yl)methoxy)pyrido[4,3-d]pyrimidin-4-yl)-3-methylpiperazin-1-yl)-2-fluoro-3-(pyridin-2-yl)prop-2-en-1-one], for which the IC50 was found to be 37 nM.
With `C#Cc1cccc2cccc(-c3ncc4c(N(C)C5CCN(C(=O)/C(F)=C/c6nccs6)C5C)nc(OC[C@@]56CCCN5C[C@H](F)C6)nc4c3F)c12` (single isomer, unassigned) [Example 73 trans isomer 1] the figure was 1600 nM; with `C#Cc1cccc2cccc(-c3ncc4c(N(C)C5CCN(C(=O)/C(F)=C/c6ccccn6)C5C)nc(OC[C@@]56CCCN5C[C@H](F)C6)nc4c3F)c12` (single isomer, unassigned) [Example 74 trans isomer 1], 2.5 nM.
In the case of `C#Cc1cccc2cccc(-c3ncc4c(N5CCN(C(=O)/C(F)=C/c6cncc(C)n6)CC5)nc(OC[C@@]56CCCN5C[C@H](F)C6)nc4c3F)c12` [Compound 125, (Z)-1-(4-(7-(8-ethynylnaphthalen-1-yl)-8-fluoro-2-(((2R, 7aS)-2-fluorotetrahydro-1H-pyrrolizin-7a(5H)-yl)methoxy)pyrido[4,3-d]pyrimidin-4-yl)piperazin-1-yl)-2-fluoro-3-(6-methylpyrazin-2-yl)prop-2-en-1-one] it was 480 nM; in that of `C#Cc1cccc2cccc(-c3ncc4c(N(C)C5CCN(C(=O)/C(F)=C/c6ccccn6)C5C)nc(OC[C@@]56CCCN5C[C@H](F)C6)nc4c3F)c12` (single isomer, unassigned) [Example 74 cis isomer 1], 1000 nM; in that of `C#Cc1cccc2cccc(-c3ncc4c(N5CCC6(CCN6C(=O)/C(F)=C/c6ccccn6)C5)nc(OC[C@@]56CCCN5C[C@H](F)C6)nc4c3F)c12` (single isomer, unassigned) [Compound 104], 16000 nM.
With `Cc1ccc2[nH]ncc2c1-c1ncc2c(N3CCN(C(=O)/C(F)=C/c4ccccn4)CC3)nc(OC[C@@]34CCCN3C[C@H](F)C4)nc2c1F` [Example 30, (Z)-2-fluoro-1-(4-(8-fluoro-2-(((2R, 7aS)-2-fluorotetrahydro-1H-pyrrolizin-7a(5H)-yl)methoxy)-7-(5-methyl-1H-indazol-4-yl)pyrido[4,3-d]pyrimidin-4-yl)piperazin-1-yl)-3-(pyridin-2-yl)prop-2-en-1-one] the figure was 470 nM; with `C#Cc1cccc2cccc(-c3ncc4c(N5CCC6(CCN6C(=O)/C(F)=C/c6nccs6)C5)nc(OC[C@@]56CCCN5C[C@H](F)C6)nc4c3F)c12` (single isomer, unassigned) [Compound 103], 620 nM.
For `C#Cc1cccc2cccc(-c3ncc4c(N5CC[C@@H]6CN(C(=O)/C(F)=C/c7ncccn7)C[C@@H]65)nc(OC[C@@]56CCCN5C[C@H](F)C6)nc4c3F)c12` [Compound 86, (Z)-1-((3aR, 6aR)-1-(7-(8-ethynylnaphthalen-1-yl)-8-fluoro-2-(((2R, 7aS)-2-fluorotetrahydro-1H-pyrrolizin-7a(5H)-yl)methoxy)pyrido[4,3-d]pyrimidin-4-yl)hexahydropyrrolo[3,4-b]pyrrol-5(1H)-yl)-2-fluoro-3-(pyrimidin-2-yl)prop-2-en-1-one], the IC50 was 110 nM.
